In ChEMBL document CHEMBL1136613, “2-(3,4-Dihydro-1H-isoquinolin-2yl)-pyridines as a novel class of NR1/2B subtype selective NMDA receptor antagonists” (Bioorg Med Chem Lett, 2003) one finds Ki, pKa and ED50 data, which are given here for 26 compounds.

The Ki is a dissociation constant, usually derived from enzyme kinetics or from competition with a known ligand. A higher Ki goes with weaker binding. One may read the pKa as the pH at which an ionisable group is half protonated. A low value points to a group that gives up its proton readily. A word on the ED50: it is the dose that gives a 50% effect, or the effect in half of the subjects. High values mean a need for a large dose, low ones an effect at a small dose.

In data set [1] the target is Glutamate [NMDA] receptor.
Description: Binding affinity against NMDA receptor by displacement of [3H]Ro-256981
The target in data set [2] is T1, Muscarinic acetylcholine receptor M1 (Homo sapiens, UniProt P11229).
T1 sequence (P11229 whole entry): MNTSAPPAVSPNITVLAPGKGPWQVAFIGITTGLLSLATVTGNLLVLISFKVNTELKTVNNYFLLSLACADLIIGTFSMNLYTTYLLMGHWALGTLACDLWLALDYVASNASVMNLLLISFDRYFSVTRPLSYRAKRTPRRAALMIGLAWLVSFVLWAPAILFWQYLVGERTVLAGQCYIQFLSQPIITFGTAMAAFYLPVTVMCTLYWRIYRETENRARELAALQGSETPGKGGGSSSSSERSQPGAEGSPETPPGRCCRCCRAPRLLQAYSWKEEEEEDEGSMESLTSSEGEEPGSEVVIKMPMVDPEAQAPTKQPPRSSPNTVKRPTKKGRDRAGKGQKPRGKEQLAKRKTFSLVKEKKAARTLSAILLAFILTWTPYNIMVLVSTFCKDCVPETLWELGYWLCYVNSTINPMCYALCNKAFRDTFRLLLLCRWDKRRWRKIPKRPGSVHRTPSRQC
Description: Displacement of [3H]pirenzepine from M1 receptor

Data set [3] deals with T2, Adrenergic receptor alpha-1 (Homo sapiens, UniProt P35348+P25100+P35368).
T2 sequence (P35348 whole entry): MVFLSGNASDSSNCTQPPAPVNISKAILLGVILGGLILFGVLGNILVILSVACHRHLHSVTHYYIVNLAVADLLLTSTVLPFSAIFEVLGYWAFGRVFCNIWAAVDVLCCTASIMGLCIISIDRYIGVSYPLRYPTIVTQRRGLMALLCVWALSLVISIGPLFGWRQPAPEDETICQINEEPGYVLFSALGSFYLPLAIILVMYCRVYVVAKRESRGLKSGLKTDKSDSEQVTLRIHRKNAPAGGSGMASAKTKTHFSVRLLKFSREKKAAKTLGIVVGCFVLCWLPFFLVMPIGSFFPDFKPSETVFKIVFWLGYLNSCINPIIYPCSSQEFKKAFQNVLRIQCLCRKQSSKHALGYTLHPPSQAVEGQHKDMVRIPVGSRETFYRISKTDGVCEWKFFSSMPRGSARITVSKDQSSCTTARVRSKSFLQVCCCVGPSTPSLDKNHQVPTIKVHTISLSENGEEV
T2 sequence (P25100 whole entry): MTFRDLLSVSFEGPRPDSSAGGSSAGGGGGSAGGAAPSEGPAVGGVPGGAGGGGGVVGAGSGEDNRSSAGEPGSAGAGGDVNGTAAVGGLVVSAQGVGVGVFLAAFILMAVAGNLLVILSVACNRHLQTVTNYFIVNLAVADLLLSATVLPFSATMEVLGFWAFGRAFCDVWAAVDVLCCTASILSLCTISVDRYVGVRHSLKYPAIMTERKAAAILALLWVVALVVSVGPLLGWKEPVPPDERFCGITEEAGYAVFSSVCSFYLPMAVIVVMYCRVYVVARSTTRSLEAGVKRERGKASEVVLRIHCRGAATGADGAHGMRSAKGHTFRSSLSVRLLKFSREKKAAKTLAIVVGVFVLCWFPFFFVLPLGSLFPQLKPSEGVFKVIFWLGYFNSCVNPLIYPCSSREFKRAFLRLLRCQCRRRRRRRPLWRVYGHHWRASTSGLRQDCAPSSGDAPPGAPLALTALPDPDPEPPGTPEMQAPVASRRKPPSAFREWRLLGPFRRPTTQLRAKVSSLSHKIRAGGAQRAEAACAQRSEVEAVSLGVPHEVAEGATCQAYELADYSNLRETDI
T2 sequence (P35368 whole entry): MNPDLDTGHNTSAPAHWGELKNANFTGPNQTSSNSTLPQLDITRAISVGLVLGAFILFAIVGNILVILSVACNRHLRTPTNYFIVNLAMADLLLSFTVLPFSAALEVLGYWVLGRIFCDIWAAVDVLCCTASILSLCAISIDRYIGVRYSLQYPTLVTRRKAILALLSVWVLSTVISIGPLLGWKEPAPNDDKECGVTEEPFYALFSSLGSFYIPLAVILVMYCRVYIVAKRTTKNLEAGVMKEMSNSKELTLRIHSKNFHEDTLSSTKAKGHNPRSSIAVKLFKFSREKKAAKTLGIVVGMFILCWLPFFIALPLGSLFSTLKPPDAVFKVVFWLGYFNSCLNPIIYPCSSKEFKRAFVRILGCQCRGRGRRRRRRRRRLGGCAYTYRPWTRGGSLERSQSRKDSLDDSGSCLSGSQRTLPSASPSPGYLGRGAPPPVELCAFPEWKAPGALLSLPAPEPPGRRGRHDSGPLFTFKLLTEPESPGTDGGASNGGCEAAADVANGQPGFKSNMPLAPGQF
Description: Displacement of [3H]prazosin from Alpha-1 adrenergic receptor. The format is protein assay. (Loss of bound radioactivity is the signal in a displacement assay; it reports binding, not function.)

Data set [4] has as its system Mus musculus. The data set is described as follows: In vivo activity was measured in mice after ip administration using standard sound-induced seizures assay. The format is functional.
Data set [5] concerns Mus musculus. Description: In vivo activity was measured i mice after ip administration using standard sound-induced seizures assay. It is filed as functional.

Each structure is given as a SMILES string. Values joined by “and” are separate entries in the source; they are usually repeats but may differ in a detail not shown here. Equal values may be shown once.

Description for physchem: Dissociation constant (pKa)

`CNc1ccnc(N2CCc3ccccc3C2)c1`: the Ki in data set [1] is 8 nM and 19 nM; in data set [2], 1200 nM. The same compound displayed a pKa in the data set “physchem” of 8.8.
Turning to `Cc1cc(N)cc(N2CCc3ccccc3C2)n1`, the Ki stood at 5 nM in data set [1], 2600 nM in data set [2] and 730 nM in data set [3]. Further, in the data set “physchem”, the pKa came to 9.
In the same order, the values of `CCc1cc(N)cc(N2CCc3ccccc3C2)n1` are 3 nM, 2500 nM, 670 nM and 9.
Consider `Nc1ccnc(N2CCc3ccccc3C2)c1`, for which the Ki in data set [1] stood at 3 nM; in data set [2] it was 1900 nM; in data set [3], 1200 nM. The ED50 with Mus musculus [4] was 7 mg/kg. For the same compound, the pKa in the data set “physchem” came to 8.5.
In the case of `CN(C)c1ccnc(N2CCc3ccccc3C2)c1`, the Ki in data set [1] stood at 8 nM; in data set [2], 150 nM; in data set [3], 490 nM. In addition, the pKa in “physchem” was determined as 8.8.
`Cc1ccnc(N2CCc3ccccc3C2)c1` yielded a Ki in data set [1] of 380 nM. Also, in the data set “physchem”, the pKa is 6.6.
In the same order, the values of `c1ccc(N2CCc3ccccc3C2)nc1` are 750 nM and 6.4.
The compound `Cc1cc(N)nc(N2CCc3ccccc3C2)c1` displayed a Ki in data set [1] of 110 nM. The pKa in the data set “physchem” is 6.5.
In the same order, the values of `Brc1ccc(N2CCc3ccccc3C2)nc1` are 7500 nM and 3.
Consider `Cc1cnc(N2CCc3ccccc3C2)cc1NCCO`, for which the Ki is 8 nM in data set [1], 6500 nM in data set [2] and 3200 nM in data set [3]. The compound also registered a pKa in “physchem” of 9.
`CC(=O)Nc1ccnc(N2CCc3ccccc3C2)c1`: the Ki in data set [1] came out at 380 nM. The compound further showed a pKa in “physchem” of 6.5.
As to `Nc1cccc(N2CCc3ccccc3C2)n1`, in data set [1], the affinity, expressed as Ki, was 190 nM. In “physchem”, the pKa is 6.
With `Cc1ccc(N2CCc3ccccc3C2)nc1`, the pKa in the data set “physchem” amounted to 6.5.
Turning to `Nc1cc(N2CCc3ccccc3C2)nc2c1CCC2`, the Ki was 9 nM in data set [1], 510 nM in data set [2] and 730 nM in data set [3]. For the same compound, in the data set “physchem”, the pKa was found to be 9.4.
The matching figures for `Cc1cnc(N2CCc3ccccc3C2)cc1N`: 4 nM, 870 nM, 1000 nM and 8.7.
Take `Brc1cccc(N2CCc3ccccc3C2)n1`: the Ki in data set [1] was found to be 15000 nM. This compound also showed a pKa in the data set “physchem” of 2.
In the same order, the values of `CCOC(=O)C(=O)Nc1cc(C)nc(N2CCc3ccccc3C2)c1` are 260 nM and 6.5.
On to `Cc1cc(NCCO)cc(N2CCc3ccccc3C2)n1`, for which the figures for the Ki in data set [1], in data set [2] and in data set [3] were 4 nM, 3800 nM and 3300 nM, respectively. Besides, in “physchem”, the pKa is 9.2.
Turning to `OCCNc1ccnc(N2CCc3ccccc3C2)c1`, the Ki came to 2 nM in data set [1], 6100 nM in data set [2] and 2300 nM in data set [3]. In addition, in the data set with Mus musculus [4], the ED50 is 13 mg/kg. Besides, in the data set “physchem”, the pKa came to 8.9.
In data set [1], `c1ccc(CNc2ccnc(N3CCc4ccccc4C3)c2)cc1` registered a Ki of 150 nM. In addition, the pKa in “physchem” was found to be 8.6.
`Nc1cccnc1N1CCc2ccccc2C1` yielded a Ki in data set [1] of 380 nM. In the data set “physchem”, this compound displayed a pKa of 5.
As to `Nc1ccc(N2CCc3ccccc3C2)nc1`, in data set [1], the affinity corresponds to a Ki of 1100 nM. In “physchem”, this compound showed a pKa of 5.8.
As to `Nc1cc(CO)nc(N2CCc3ccccc3C2)c1`, the Ki in data set [1] turned out to be 4 nM; in data set [2], 1100 nM; in data set [3], 1700 nM. This compound also registered a pKa in the data set “physchem” of 8.1.
In data set [1], `OCCNc1cc(N2CCc3ccccc3C2)nc2ccccc12` registered a Ki of 3.5 nM. In the data set on Mus musculus [5], the ED50 was below 12 mg/kg.
Turning to `C[C@@H](CN1CCC(Cc2ccccc2)CC1)[C@@H](O)c1ccc(O)cc1` (single isomer, unassigned), the Ki in data set [1] was 6 nM. Besides, in the data set with Mus musculus [4], the 50% effect level (ED50) was put at a dose of 13 mg/kg.
`C[C@@H]([C@@H](O)c1ccc(O)cc1)N1CCC(O)(c2ccccc2)CC1` [TRAXOPRODIL] registered an ED50 in the data set with Mus musculus [4] of 13 mg/kg.
